Measurements published in ChEMBL document CHEMBL5120900, “Structure-Based Discovery of a Series of NSD2-PWWP1 Inhibitors” (J Med Chem, 2022).
Active and inactive are the calls of the source. No cut-off for these calls is given here.

How the values were obtained:
[1] = biological target: T1, Histone-lysine N-methyltransferase NSD2 (Homo sapiens, UniProt O96028); experiment: Binding affinity to N-terminal His6/Sumo-tagged NSD2 PWWP1 domain (211 to 350 residues) (unknown origin) expressed in Escherichia coli BL21 (DE3) using ATKAARKSAPATGGV-Lys (me)2-KPHRYRPG polypeptide as substrate incubated for 3 hrs by HTRF assay
T1 sequence (O96028 whole entry): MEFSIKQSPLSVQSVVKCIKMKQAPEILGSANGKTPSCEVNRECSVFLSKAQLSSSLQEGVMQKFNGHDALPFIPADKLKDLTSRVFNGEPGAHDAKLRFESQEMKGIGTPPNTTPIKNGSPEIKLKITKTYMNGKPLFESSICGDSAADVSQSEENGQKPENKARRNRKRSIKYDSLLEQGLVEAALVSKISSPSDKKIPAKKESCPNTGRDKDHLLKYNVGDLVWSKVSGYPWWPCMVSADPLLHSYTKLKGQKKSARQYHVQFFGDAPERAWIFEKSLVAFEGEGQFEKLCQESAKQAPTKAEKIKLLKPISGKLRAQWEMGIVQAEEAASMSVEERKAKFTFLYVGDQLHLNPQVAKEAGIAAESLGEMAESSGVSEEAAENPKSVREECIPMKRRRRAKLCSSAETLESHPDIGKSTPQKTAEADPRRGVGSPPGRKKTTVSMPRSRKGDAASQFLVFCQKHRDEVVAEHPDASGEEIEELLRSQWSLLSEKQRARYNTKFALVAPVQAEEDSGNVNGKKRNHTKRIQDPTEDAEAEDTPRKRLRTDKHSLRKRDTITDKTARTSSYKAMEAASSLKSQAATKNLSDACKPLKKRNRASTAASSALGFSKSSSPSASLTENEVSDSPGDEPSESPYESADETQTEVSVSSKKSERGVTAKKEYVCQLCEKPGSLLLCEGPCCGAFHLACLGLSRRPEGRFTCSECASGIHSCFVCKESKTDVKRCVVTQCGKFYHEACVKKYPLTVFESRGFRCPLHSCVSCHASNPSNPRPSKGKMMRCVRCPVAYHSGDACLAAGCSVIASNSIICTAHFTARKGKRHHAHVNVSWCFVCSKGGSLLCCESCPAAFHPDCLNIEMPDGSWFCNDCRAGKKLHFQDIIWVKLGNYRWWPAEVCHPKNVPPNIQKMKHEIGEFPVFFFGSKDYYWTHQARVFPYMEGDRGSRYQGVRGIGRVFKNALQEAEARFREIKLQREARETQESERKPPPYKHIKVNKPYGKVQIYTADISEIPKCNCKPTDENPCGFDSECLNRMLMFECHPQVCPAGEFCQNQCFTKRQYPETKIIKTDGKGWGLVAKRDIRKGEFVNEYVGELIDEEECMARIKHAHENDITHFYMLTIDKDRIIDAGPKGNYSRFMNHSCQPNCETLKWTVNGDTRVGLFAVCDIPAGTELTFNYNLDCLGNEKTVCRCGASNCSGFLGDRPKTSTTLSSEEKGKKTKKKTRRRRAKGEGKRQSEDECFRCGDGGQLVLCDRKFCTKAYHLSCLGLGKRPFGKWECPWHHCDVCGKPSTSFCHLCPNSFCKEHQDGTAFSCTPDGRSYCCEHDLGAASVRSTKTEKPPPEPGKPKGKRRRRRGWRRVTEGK

[2] = biological target: T2, Histone-lysine N-methyltransferase NSD2 (Homo sapiens) (UniProt O96028); experiment: Inhibition of NSD2 in human KMS-11 cells assessed as decrease in RRAS2 gene expression at 10 uM incubated for 72 hrs by RT-PCR analysis; assay type: cell-based
T2 sequence (whole entry): T1 sequence (O96028 whole entry)

[3] = biological target: T2, Histone-lysine N-methyltransferase NSD2 (Homo sapiens); experiment: Inhibition of NSD2 in human KMS-11 cells assessed as decrease in TEMEL2 gene expression at 10 uM incubated for 72 hrs by RT-PCR analysis; assay type: cell-based
MV4-11 [4] = experiment: Antiproliferative activity against human MV4-11 cells assessed as inhibition of cell proliferation measured after 6 days by CCK8 assay; assay type: functional, cell-based; conditions: MV4-11, 144 h
KMS-11 [5] = experiment: Induction of apoptosis in human KMS-11 cells assessed as necrotic cells at 5 uM measured after 72 hrs by Annexin V FITC/PI staining based flow cytometry analysis (reference value: 0.88%); assay type: functional
KMS-11 [6] = experiment: Induction of apoptosis in human KMS-11 cells assessed as viable cells at 10 uM measured after 72 hrs by Annexin V FITC/PI staining based flow cytometry analysis (reference value: 69.4%); assay type: functional; conditions: read-out: Activity
KMS-11 [7] = experiment: Induction of apoptosis in human KMS-11 cells assessed as late apoptotic cells at 10 uM measured after 72 hrs by Annexin V FITC/PI staining based flow cytometry analysis (reference value: 13.3 %); assay type: functional
MV4-11 [8] = experiment: Induction of apoptosis in human MV4-11 cells assessed as viable cells at 5 uM measured after 72 hrs by Annexin V FITC/PI staining based flow cytometry analysis (reference value: 91.7%); assay type: functional; conditions: read-out: Activity
MV4-11 [9] = experiment: Induction of apoptosis in human MV4-11 cells assessed as early apoptotic cells at 5 uM measured after 72 hrs by Annexin V FITC/PI staining based flow cytometry analysis (reference value: 4.58 %); assay type: functional
MV4-11 [10] = experiment: Induction of apoptosis in human MV4-11 cells assessed as viable cells at 10 uM measured after 72 hrs by Annexin V FITC/PI staining based flow cytometry analysis (reference value: 91.7%); assay type: functional; conditions: read-out: Activity
MV4-11 [11] = experiment: Induction of apoptosis in human MV4-11 cells assessed as early apoptotic cells at 10 uM measured after 72 hrs by Annexin V FITC/PI staining based flow cytometry analysis (reference value: 4.58 %); assay type: functional
MV4-11 [12] = experiment: Induction of apoptosis in human MV4-11 cells assessed as late apoptotic cells at 10 uM measured after 72 hrs by Annexin V FITC/PI staining based flow cytometry analysis (reference value: 3.02%); assay type: functional
MV4-11 [13] = experiment: Induction of apoptosis in human MV4-11 cells assessed as necrotic cells at 10 uM measured after 72 hrs by Annexin V FITC/PI staining based flow cytometry analysis (reference value: […]); assay type: functional
KMS-11 [14] = experiment: Cell cycle arrest in human KMS-11 cells assessed as increase in accumulation of G0/G1 phase at 5 to 10 uM measured after 24 hrs by PI staining based flow cytometric analysis; assay type: functional; conditions: dose 5-10 µM

Cc1cc(CN2CCC(N)CC2)cc(C)c1-c1ncn(C)c1-c1ccc(C#N)c2ccccc12
IC50 [1]: 110 nM
inhibition [2]: Active
inhibition [3]: Active
IC50 (MV4-11 [4]): 2230 nM
Activity (KMS-11 [5]): 0.69%
viability at 10 µM (KMS-11 [6]): 36.8%
Activity (KMS-11 [7]): 32.7%
viability at 5 µM (MV4-11 [8]): 91%
Activity (MV4-11 [9]): 6.26%
viability at 10 µM (MV4-11 [10]): 37.3%
Activity (MV4-11 [11]): 41.3%
Activity (MV4-11 [12]): 19.8%
Activity (MV4-11 [13]): 1.56%
Activity (KMS-11 [14]): Active
